Data reported in patent US11912686B2 (Gilead Sciences, Inc., priority 2020, dated 2024).

The compounds below were run against human LPAR1 (Homo sapiens (Human), UniProt Q92633) (assay: LPAR1 intracellular calcium mobilization assay (antagonist mode, FLIPR)). Conditions: CHO-K1 EDG2 cells expressing human LPAR1, LPA 18:2 at EC80 (100 nM), test compound 0.5 nM to 10 μM.
Type: cell-based

Sequence of human LPAR1 (Q92633 whole entry): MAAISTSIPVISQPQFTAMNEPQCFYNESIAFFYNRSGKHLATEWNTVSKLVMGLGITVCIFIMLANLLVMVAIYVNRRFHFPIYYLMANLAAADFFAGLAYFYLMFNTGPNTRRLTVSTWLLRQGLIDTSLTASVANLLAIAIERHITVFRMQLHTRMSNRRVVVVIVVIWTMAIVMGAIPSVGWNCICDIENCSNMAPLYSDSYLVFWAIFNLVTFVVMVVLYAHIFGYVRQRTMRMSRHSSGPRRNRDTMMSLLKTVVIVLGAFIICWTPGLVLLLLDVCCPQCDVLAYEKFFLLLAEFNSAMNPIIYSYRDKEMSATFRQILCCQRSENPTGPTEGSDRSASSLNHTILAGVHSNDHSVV

SMILES	EC50 [nM]
C[C@@H](OC(=O)Nc1c(-c2ccc(NC(=O)[C@@H]3C[C@H]3c3ccncc3)cn2)nnn1C)c1cc(F)cnc1F (mixture of isomers) [Compound 217, (R)-1-(2,5-difluoropyridin-3-yl)ethyl (1-methyl-4-(5-((1RS,2RS)-2-(pyridin-4-yl)cyclopropane-1-carboxamido)pyridin-2-yl)-1H-1,2,3-triazol-5-yl)carbamate]	58.1
C[C@@H](OC(=O)Nc1c(-c2ccc(NC(=O)[C@@H]3C[C@H]3F)cn2)nnn1C)c1cccnc1F [Compound 169, (R)-1-(2-fluoropyridin-3-yl)ethyl (4-(5-((1S,2R)-2-fluorocyclopropane-1-carboxamido)pyridin-2-yl)-1-methyl-1H-1,2,3-triazol-5-yl)carbamate]	191
Cc1ncc(F)cc1[C@@H](C)OC(=O)Nc1c(-c2ccc(NC(=O)C34CC(C#N)(C3)C4)cn2)nnn1C [Compound 178, (R)-1-(5-fluoro-2-methylpyridin-3-yl)ethyl (4-(5-(3-cyanobicyclo[1.1.1]pentane-1-carboxamido)pyridin-2-yl)-1-methyl-1H-1,2,3-triazol-5-yl)carbamate]	140
C[C@@H](OC(=O)Nc1c(-c2ccc(NC(=O)[C@@H]3C[C@H]3Cl)cn2)nnn1C)c1cc(F)cnc1F [Compound 218, (R)-1-(2,5-difluoropyridin-3-yl)ethyl (4 (5-((1S,2R)-2-chlorocyclopropane-1-carboxamido)pyridin-2-yl)-1-methyl-1H-1,2,3-triazol-5-yl)carbamate]	24
C[C@@H](OC(=O)Nc1c(-c2ccc(NC(=O)c3ccnc(N)c3)cn2)nnn1C)c1cc(F)cnc1F [Compound 232, (R)-1-(2,5-difluoropyridin-3-yl)ethyl (4-(5-(2-aminoisonicotinamido)pyridin-2-yl)-1-methyl-1H-1,2,3-triazol-5-yl)carbamate]	1110
C[C@@H](OC(=O)Nc1c(-c2ccc(NC(=O)c3ccc(C(F)F)nc3)cn2)nnn1C)c1cc(F)cnc1F [Compound 222, (R)-1-(2,5-difluoropyridin-3-yl)ethyl (4-(5-(6-(difluoromethyl)nicotinamido)pyridin-2-yl)-1-methyl-1H-1,2,3-triazol-5-yl)carbamate]	41.7
CC(OC(=O)Nc1c(-c2ccc(NC(=O)C(F)(F)F)cn2)nnn1C)c1cc(Br)cnc1Cl (centres unmarked) [Compound 13, 1-(5-bromo-2-chloropyridin-3-yl)ethyl (1-methyl-4-(5-(2,2,2-trifluoroacetamido)pyridin-2-yl)-1H-1,2,3-triazol-5-yl)carbamate]	148
C[C@@H](OC(=O)Nc1c(-c2ccc(NC(=O)c3ccnc(C(F)F)c3)cn2)nnn1C)c1cc(F)cnc1F [Compound 224, (R)-1-(2,5-difluoropyridin-3-yl)ethyl (4-(5-(2-(difluoromethyl)isonicotinamido)pyridin-2-yl)-1-methyl-1H-1,2,3-triazol-5-yl)carbamate]	40.2
C[C@@H](OC(=O)Nc1c(-c2ccc(NC(=O)[C@H]3C[C@@H](F)C3)cn2)nnn1C)c1cccnc1Cl [Compound 71, (R)-1-(2-chloropyridin-3-yl)ethyl (4-(5-((1s,3S)-3-fluorocyclobutane-1-carboxamido)pyridin-2-yl)-1-methyl-1H-1,2,3-triazol-5-yl)carbamate]	89.7
C[C@@H](OC(=O)Nc1c(-c2ccc(NC(=O)[C@]3(C)C[C@H](C#N)C3)cn2)nnn1C)c1cccnc1Cl [Compound 121, (R)-1-(2-chloropyridin-3-yl)ethyl (4-(5-((1s,3S)-3-cyano-1-methylcyclobutane-1-carboxamido)pyridin-2-yl)-1-methyl-1H-1,2,3-triazol-5-yl)carbamate]	264
C[C@@H](OC(=O)Nc1c(-c2ccc(NC(=O)c3cnc(C(F)(F)F)nc3)cn2)nnn1C)c1cccnc1Cl [Compound 205, (R)-1-(2-chloropyridin-3-yl)ethyl (1-methyl-4-(5-(2-(trifluoromethyl)pyrimidine-5-carboxamido)pyridin-2-yl)-1H-1,2,3-triazol-5-yl)carbamate]	8.3
C[C@@H](OC(=O)Nc1c(-c2ccc(NC(=O)C3CC4(CC(C#N)C4)C3)cn2)nnn1C)c1cccnc1Cl (stereo partly drawn) [Compound 80, (R)-1-(2-chloropyridin-3-yl)ethyl (4-(5-(6-cyanospiro[3.3]heptane-2-carboxamido)pyridin-2-yl)-1-methyl-1H-1,2,3-triazol-5-yl)carbamate]	109
Cc1ncc(C(=O)Nc2ccc(-c3nnn(C)c3NC(=O)O[C@H](C)c3cc(F)cnc3F)nc2)o1 [Compound 256, (R)-1-(2,5-difluoropyridin-3-yl)ethyl (1-methyl-4-(5-(2-methyloxazole-5-carboxamido)pyridin-2-yl)-1H-1,2,3-triazol-5-yl)carbamate]	209
C[C@@H](OC(=O)Nc1c(-c2ccc(NC(=O)C3(C)CC(F)(F)C3)cn2)nnn1C)c1cccnc1Cl [Compound 144, (R)-1-(2-chloropyridin-3-yl)ethyl (4-(5-(3,3-difluoro-1-methylcyclobutane-1-carboxamido)pyridin-2-yl)-1-methyl-1H-1,2,3-triazol-5-yl)carbamate]	36.1
C[C@@H](OC(=O)Nc1c(-c2ccc(NC(=O)c3c[nH]cn3)cn2)nnn1C)c1cccnc1Cl [Compound 106, (R)-1-(2-chloropyridin-3-yl)ethyl (4-(5-(1H-imidazole-4-carboxamido)pyridin-2-yl)-1-methyl-1H-1,2,3-triazol-5-yl)carbamate]	1760
C[C@@H](OC(=O)Nc1c(-c2ccc(NC(=O)CC#N)cn2)nnn1C)c1cccnc1Cl [Compound 59, (R)-1-(2-chloropyridin-3-yl)ethyl (4-(5-(2-cyanoacetamido)pyridin-2-yl)-1-methyl-1H-1,2,3-triazol-5-yl)carbamate]	264
C[C@@H](OC(=O)Nc1c(-c2ccc(NC(=O)[C@@H]3C[C@H]3CF)cn2)nnn1C)c1cc(F)cnc1F (mixture of isomers) [Compound 208, (R)-1-(2,5-difluoropyridin-3-yl)ethyl (4-(5-((1RS,2RS)-2-(fluoromethyl)cyclopropane-1-carboxamido)pyridin-2-yl)-1-methyl-1H-1,2,3-triazol-5-yl)carbamate]	21.1
C[C@@H](OC(=O)Nc1c(-c2ccc(NC(=O)C3CC3)cn2)nnn1C)c1cccnc1Cl [Compound 34, (R)-1-(2-chloropyridin-3-yl)ethyl (4-(5-(cyclopropanecarboxamido)pyridin-2-yl)-1-methyl-1H-1,2,3-triazol-5-yl)carbamate]	429
C[C@@H](OC(=O)Nc1c(-c2ccc(NC(=O)C3(C#N)CC4(CCC4)C3)cn2)nnn1C)c1cccnc1Cl [Compound 79, (R)-1-(2-chloropyridin-3-yl)ethyl (4-(5-(2-cyanospiro[3.3]heptane-2-carboxamido)pyridin-2-yl)-1-methyl-1H-1,2,3-triazol-5-yl)carbamate]	16
C[C@@H](OC(=O)Nc1c(-c2cnc(NC(=O)C3(C#N)CC3)cn2)nnn1C)c1cccnc1Cl [Compound 8, (R)-1-(2-chloropyridin-3-yl)ethyl (4-(5-(1-cyanocyclopropane-1-carboxamido)pyrazin-2-yl)-1-methyl-1H-1,2,3-triazol-5-yl)carbamate]	154
